Series [1] concerns the target Chloride. Briefly: Binding affinity to chloride anions assessed as chloride efflux in egg-yolk L-alpha-phosphatidylcholine liposome model measured per lipid in presence of intravesicular NaCl/extravesicular NaNO3 by chloride ion selective electrode technique.
Series [2] relates to Chloride. Briefly: Binding affinity to chloride anions in human HeLa cells assessed as increase in green fluorescence in cytoplasm at 5 uM incubated for 6 hrs by AO staining based analysis. The format is cell-based.
The test system of the next series is HepG2. Briefly: Cytotoxicity against human HepG2 cells incubated for 48 hrs by MTT assay. The format is functional, cell-based. The conditions noted are these: HepG2, 48 h. For orientation: Formazan colour is commonly taken as a measure of viable cells.
The test system of series [3] is Chloride. Briefly: Binding affinity to chloride anions in human HeLa cells assessed as chloride influx up to 5 uM incubated for 2 hrs by MQAE staining based analysis. In kind it is cell-based.
The target of series [4] is Chloride. Briefly: Binding affinity to chloride anions assessed as anionophoric activity in egg-yolk L-alpha-phosphatidylcholine liposome model measured per lipid by pyranine-based fluorescent assay.
A further series concerns MCF7. As to the kind of experiment: Cytotoxicity against human MCF7 cells incubated for 48 hrs by MTT assay. The format is functional, cell-based. The conditions noted are these: MCF7, 48 h.
For series [5], the system named is Chloride. Briefly: Binding affinity to chloride anions assessed as fold increase in anionophoric activity in egg-yolk L-alpha-phosphatidylcholine liposome model measured per lipid by pyranine-based fluorescent assay relative to m-Bimbe.
Series [6] relates to HeLa. As to the kind of experiment: Cytotoxicity against human HeLa cells incubated for 48 hrs by MTT assay. In kind it is functional, cell-based.
Another series concerns A549. Briefly: Cytotoxicity against human A549 cells incubated for 48 hrs by MTT assay. In kind it is functional, cell-based. The conditions noted are these: A549, 48 h.
Series [7] has as its system Chloride. Briefly: Binding affinity to chloride anions in human HeLa cells assessed as decrease in orange fluorescence in cytoplasm at 5 uM incubated for 6 hrs by AO staining based analysis relative to control. In kind it is cell-based. Details: scale not given: the % may be the effect or the level left.
Series [8] relates to Chloride. As to the kind of experiment: Binding affinity to chloride anions assessed as transport of chloride anions across bulky nitrobenzene membrane in U-shaped tube harboring NaCl in donor phase and NaNO3 in receiving phase at 1 mM measured for 12 hrs by chloride ion selective electrode technique.
The subject of series [9] is Chloride. Briefly: Binding affinity to chloride anions in human HeLa cells assessed as decrease in red fluorescence in cytoplasm at 5 uM incubated for 1.5 hrs by MR-(RR)2 staining based analysis. The format is cell-based.
Series [10] concerns Chloride. As to the kind of experiment: Binding affinity to chloride anions using tetrabutylammonium chloride salt assessed as association constant by 1H NMR spectroscopy.
The subject of a further series is Liposome. As to the kind of experiment: Disruption of egg-yolk L-alpha-phosphatidylcholine liposome model membrane assessed as calcein leakage by fluorescence based assay. In kind it is subcellular.
A short description of series [11]: Toxicity in male Balb/C nude mouse xenografted with human HeLa cells assessed as body weight change at […], ip administered on every 2 days measured after 18 days. The format is organism-based. The conditions noted are these: in vivo, 432 h, time 18 day.
The test system of series [12] is HeLa. As to the kind of experiment: Antitumor activity against human HeLa cells xenografted in male Balb/C nude mouse assessed as average tumor size at 2 mg/kg, ip administered on every 2 days measured after 18 days (reference value: 1995.1 mm3). The conditions noted are these: time 18 day. The format is functional.

pIC50: −log10 of the molar value. The source made the active and inactive calls. The rule behind the calls is not given here. Some results are limits rather than exact numbers.

Consider ten molecules from ChEMBL document CHEMBL6178013, “Ferroptosis of Cancer Cells via Tubulin Degradation and Mitochondrial Dysfunction: A Novel Mechanism of Anticancer Effect for Small-Molecule Anion Transporters” (J Med Chem, 2025).

A word on the pIC50: it is −log10 of the IC50, conventionally taken in molar units.

As to `O=[N+]([O-])c1cc(-c2nc3cc(F)c(C(F)(F)F)cc3[nH]2)cc(-c2nc3cc(F)c(C(F)(F)F)cc3[nH]2)c1`, the results for the EC50 at Chloride [1] and on Chloride [4] were 0.11 mol% and 2.37 10^-2mol%, respectively. For the same molecule, the values for the Activity entry with Chloride [2], in the series with Chloride [7] and in the series on Chloride [9] were “Active; The Result Indicates That Compound Basify Acidic Organelles”, 100% and “Active; The Result Reveals That Compound Can Alkalize Lysosomes”, respectively. The pIC50 with HepG2 was 5.66; in the series with MCF7, 5.47; in the series with HeLa [6] it was 5.37; in the series with A549 it was 4.99. Also, the outcome in the series on Chloride [3] and in the series with Chloride [8] was Active. Also, the fold change (FC) with Chloride [5] is 4.08 10^2No_unit. Also, the Ka with Chloride [10] is 4.95 10^3/M. For the same molecule, the result in the series on Liposome was inactive.
As to `FC(F)(F)c1ccc2nc(-c3cccc(-c4nc5ccc(C(F)(F)F)cc5[nH]4)c3)[nH]c2c1`, the figures for the EC50 on Chloride [1] and on Chloride [4] were more than 10 mol% and 9.67 mol%, respectively. For the same molecule, the Activity entry in the series on Chloride [2] and in the series with Chloride [7] was “Not active; Only Slight Activity Was Observed” each time. The pIC50 in the series on HepG2 was 4.97; in the series with MCF7, 4.98; in the series on HeLa [6], 4.91; in the series with A549 it was 4.89. Moreover, in the series on Chloride [8], the outcome was Active. Also, the Ka with Chloride [10] is 3.51 10^3/M. Further, the result in the series with Liposome was inactive.
As for `Fc1cc(-c2nc3cc(F)c(C(F)(F)F)cc3[nH]2)cc(-c2nc3cc(F)c(C(F)(F)F)cc3[nH]2)c1`, the EC50 at Chloride [1] is reported as 0.2 mol%; on Chloride [4] it was 3.79 10^-2mol%. Moreover, the Activity result in the series with Chloride [2] and in the series on Chloride [7] was “Active; The Result Indicates That Compound Basify Acidic Organelles” each time. For the same molecule, the pIC50 is 5.50 in the series on HepG2, 5.48 in the series on MCF7, 5.41 with HeLa [6] and 5.40 in the series on A549. Also, in the series with Chloride [5], the fold change (FC) was 2.55 10^2No_unit. For the same molecule, the result in the series with Chloride [8] was Active. Moreover, the Ka in the series on Chloride [10] was 1.01 10^3/M. In the series on Liposome, the outcome was inactive.
Take `c1cc(-c2nc3ccccc3[nH]2)cc(-c2nc3ccccc3[nH]2)c1`: the EC50 at Chloride [1] is recorded as 0.06 mol%; at Chloride [4] it was 2.76 10^-3mol%. For the same molecule, the fold change (FC) with Chloride [5] was 3.5 10^3No_unit. Besides, in the series on Chloride [10], the Ka is 1.45 10^4/M.
For `O=[N+]([O-])c1cc(-c2nc3c(C(F)(F)F)cc(C(F)(F)F)cc3[nH]2)cc(-c2nc3c(C(F)(F)F)cc(C(F)(F)F)cc3[nH]2)c1`, the EC50 at Chloride [1] was 0.02 mol%; at Chloride [4], 5.34 10^-3mol%. For the same molecule, the Activity entry is “Active; The Result Indicates That Compound Basify Acidic Organelles” in the series on Chloride [2], 100% in the series with Chloride [7] and “Active; The Result Reveals That Compound Can Alkalize Lysosomes” in the series on Chloride [9]. The pIC50 with HepG2 is 4.78; in the series with MCF7 it was 4.97; with HeLa [6] it was 5.01; in the series with A549 it was 4.98. Further, the outcome with Chloride [3] and in the series on Chloride [8] was Active. Besides, the fold change (FC) with Chloride [5] is 1.81 10^3No_unit. The Ka with Chloride [10] is 6.58 10^3/M. In addition, the result in the series with Liposome was inactive.
Turning to `Fc1cc(-c2nc3ccc(C(F)(F)F)cc3[nH]2)cc(-c2nc3ccc(C(F)(F)F)cc3[nH]2)c1`, the EC50 is 0.94 mol% at Chloride [1] and 1.54 10^-2mol% at Chloride [4]. In addition, the Activity entry in the series on Chloride [2] and in the series with Chloride [7] was “Active; The Result Indicates That Compound Basify Acidic Organelles” each time. In addition, the pIC50 was 5.78 in the series with HepG2, 5.50 in the series with MCF7, 5.45 in the series on HeLa [6] and 5.34 in the series with A549. Moreover, in the series on Chloride [5], the fold change (FC) was 6.28 10^2No_unit. In addition, the result in the series with Chloride [8] was Active. Further, in the series with Chloride [10], the Ka is 1.17 10^4/M. The outcome in the series with Liposome was inactive.
For the molecule `COc1cccc2c1C(=O)c1c(O)c3c(c(O)c1C2=O)C[C@@](O)(C(=O)CO)C[C@@H]3O[C@H]1C[C@H](N)[C@H](O)[C@H](C)O1` [DOXORUBICIN], the negative logarithm of the IC50 (pIC50) with HepG2 is 5.64; in the series with MCF7 it was 6.59; with HeLa [6], 6.96. In addition, the Activity entry is “Toxic” in series [11] and 1093.2 mm3 in the series with HeLa [12].
Turning to `Fc1cc2nc(-c3cccc(-c4nc5cc(F)c(C(F)(F)F)cc5[nH]4)c3)[nH]c2cc1C(F)(F)F`, the EC50 on Chloride [1] was 4.11 mol%; at Chloride [4], 0.64 mol%. Further, the Activity entry in the series with Chloride [2] and in the series with Chloride [7] was “Active; The Result Indicates That Compound Basify Acidic Organelles” each time. Further, the pIC50 with HepG2 was 4.95; in the series with MCF7, 4.95; with HeLa [6] it was 4.74; with A549, 4.54. Also, the fold change (FC) in the series with Chloride [5] amounted to 15.1. The result with Chloride [8] was Active. Further, the Ka in the series with Chloride [10] is 6.96 10^3/M. The outcome in the series on Liposome was inactive.
As for `O=[N+]([O-])c1cc(-c2nc3ccc(C(F)(F)F)cc3[nH]2)cc(-c2nc3ccc(C(F)(F)F)cc3[nH]2)c1`, the EC50 on Chloride [1] is on record as 0.3 mol%; on Chloride [4] it was 2 10^-3mol%. Further, the Activity result is “Active; The Result Indicates That Compound Basify Acidic Organelles” in the series with Chloride [2], “Active; The Result Indicates That Compound Basify Acidic Organelles” with Chloride [7] and “Active; The Result Reveals That Compound Can Alkalize Lysosomes” with Chloride [9]. Also, the pIC50 in the series on HepG2 was 5.17; in the series on MCF7 it was 5.07; with HeLa [6], 5.08; with A549 it was 5.11. Further, the result in the series on Chloride [3] and in the series with Chloride [8] was Active. Further, in the series with Chloride [5], the fold change (FC) is 4.84 10^3No_unit. In addition, in the series with Chloride [10], the Ka was 5.25 10^3/M. In addition, the result in the series on Liposome was inactive.
As for `FC(F)(F)c1cc(C(F)(F)F)c2nc(-c3cccc(-c4nc5c(C(F)(F)F)cc(C(F)(F)F)cc5[nH]4)c3)[nH]c2c1`, the EC50 at Chloride [1] is 1.92 mol%; at Chloride [4], 0.27 mol%. Moreover, the Activity entry in the series on Chloride [2] is recorded as “Active; The Result Indicates That Compound Basify Acidic Organelles”; with Chloride [7] it was “Active; The Result Indicates That Compound Basify Acidic Organelles”; in the series with Chloride [9], “Active; The Result Reveals That Compound Can Alkalize Lysosomes”. Besides, the pIC50 in the series on HepG2 is 5.08; with MCF7, 5.62; in the series on HeLa [6] it was 5.55; in the series with A549, 5.83. Further, the result in the series on Chloride [3] and in the series with Chloride [8] was Active. The fold change (FC) with Chloride [5] turned out to be 35.8. Besides, the Ka with Chloride [10] is 2.93 10^4/M. The outcome with Liposome was inactive.
